We go through 72 compounds from patent US10633383B2, “Compounds for the treatment, alleviation or prevention of disorders associated with Tau aggregates” (AC Immune SA, priority 2018, dated 2020).

Molecules are shown by their SMILES. Bounds are passed on as bounds.

T1 sequence (P10636 561-689): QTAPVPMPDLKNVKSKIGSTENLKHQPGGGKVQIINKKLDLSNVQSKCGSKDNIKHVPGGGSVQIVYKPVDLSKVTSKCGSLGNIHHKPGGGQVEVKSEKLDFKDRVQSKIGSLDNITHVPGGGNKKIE

The assay has as its target T1, Tau K18 fragment (amino acids 244 to 372 of human Tau441) aggregates (Homo sapiens, UniProt P10636).
T1 construct: encompassing amino acids 244 to 372 of the longest isoform (2N4R) of human Tau441; host or cells: bacteria
Put plainly: Tau K18 disaggregation assay by ThT. Format: biochemical. The settings on record: 2 μM K18 aggregates, 30 minutes at RT, ThT fluorescence. Here is the method:
Tau K18 Disaggregation Assay by ThT
Compounds were dissolved in anhydrous dimethyl sulfoxide (DMSO, Sigma-Aldrich) to reach a concentration of 10 mM. K18 aggregates and serial dilutions of compounds were mixed together in PBS (volume 50 μL) to a final concentration of 2 μM of K18 aggregates and from 160 to 0.04 μM of compounds. The mixture was incubated for 30 minutes at room temperature (RT), then 40 μL of this mixture were transferred into a black 384-well plate assay (Perkin-Elmer) and mixed with 10 μL of 100 μM ThT in 250 mM glycine (both from Sigma-Aldrich) in PBS. Fluorescence (relative fluorescence units; RFU) was measured in monoplicate or duplicate on a Tecan reader (excitation: 440 nm; emission: 485 nm). Percentage of K18 disaggregation was then calculated and half maximal effective concentration (EC50) was determined using GraphPad Prism version 5 (GraphPad Software) assuming a one-binding site fitting model.
In turn, `Cn1c2c(c3cc(F)ccc31)CN(c1ccc3nc(N4CCOCC4)sc3c1)CC2` [Example 1] showed an EC50 of less than 10 µM.
To `CN(C)c1nc2ccc(N3CCc4[nH]c5ccc(F)cc5c4C3)cc2s1` [Example 7] belongs less than 10 µM; to `CN(C)c1nc2cc(N3CCc4[nH]c5ccc(F)cc5c4C3)ccc2o1` [Example 10], less than 10 µM; to `CN(C)c1nc2cc(N3CCc4[nH]c5ccc(F)cc5c4C3)ccc2s1` [Example 11], less than 10 µM.
To `Cn1c2c(c3cc(F)ccc31)CN(c1ccc3nc(N4CCOCC4)oc3c1)CC2` [Example 15] belongs 25 to 50 µM; to `CN(C)c1nc2cc(N3CCc4c(c5cc(F)cnc5n4C)C3)ccc2o1` [Example 38], less than 10 µM.
For `CNc1nc2ccc(N3CCc4c(c5cc(OC)ccc5n4C)C3)cc2s1` [Example 41] the value was less than 10 µM; for `Fc1cccc2[nH]c3c(c12)CN(c1ccc2oc(N4CCOCC4)nc2c1)CC3` [Example 53], less than 10 µM; for `Fc1ccc2[nH]c3c(c2c1)CN(c1cnc2nc(N4CCOCC4)sc2c1)CC3` [Example 71], less than 10 µM.
As to `Fc1ccc2[nH]c3c(c2c1)CN(c1ccc2nc(N4CCOCC4)sc2n1)CC3` [Example 72], the EC50 was less than 10 µM.
To `Fc1ccc2c3c([nH]c2c1)CCN(c1cnc2nc(N4CCOCC4)sc2c1)C3` [Example 73] belongs less than 10 µM.
To `Fc1ccc2[nH]c3c(c2c1)CN(c1ccc(N2CCOCC2)cn1)CC3` [Example 76] belongs less than 10 µM; to `Cn1c2c(c3cc(F)ccc31)CN(c1ccc(N3CCOCC3)cn1)CC2` [Example 77], less than 10 µM; to `Fc1ccc2c3c([nH]c2c1)CCN(c1ccc(N2CCOCC2)cn1)C3` [Example 78], less than 10 µM.
Turning to `Fc1ccc2c3c([nH]c2c1)CCN(c1ccc(N2CCOCC2)nc1)C3` [Example 79], the EC50 is less than 10 µM.
To `Cn1c2c(c3ccc(F)cc31)CN(c1ccc(N3CCOCC3)cn1)CC2` [Example 80] belongs less than 10 µM; to `Fc1cccc2[nH]c3c(c12)CN(c1ccc(N2CCOCC2)nc1)CC3` [Example 81], 10 to 25 µM; to `Fc1cccc2[nH]c3c(c12)CN(c1ccc(N2CCOCC2)cn1)CC3` [Example 82], 10 to 25 µM.
For the compound `Cn1c2c(c3c(F)cccc31)CN(c1ccc(N3CCOCC3)nc1)CC2` [Example 83], the EC50 was less than 10 µM.
Consider `Cn1c2c(c3ccccc31)CN(c1ccc(N3CCOCC3)cn1)CC2` [Example 84], for which the EC50 was less than 10 µM.
For `c1ccc2c3c([nH]c2c1)CCN(c1ccc(N2CCOCC2)cn1)C3` [Example 85] the value was less than 10 µM; for `c1ccc2c3c([nH]c2c1)CCN(c1ccc(N2CCOCC2)nc1)C3` [Example 86], 10 to 25 µM; for `Cn1c2c(c3ccc(F)cc31)CN(c1ccc(N3CCOCC3)nc1)CC2` [Example 87], less than 10 µM.
For `Fc1ccc2c3c([nH]c2c1)CCN(c1ccc2nc(N4CCOCC4)sc2n1)C3` [Example 88] the value was less than 10 µM.
To `Fc1ccc2c3c([nH]c2c1)CCN(c1cc2sc(N4CCOCC4)nc2cn1)C3` [Example 89, 4-(6-(7-fluoro-1,3,4,5-tetrahydro-2H-pyrido[4,3-b]indol-2-yl)thiazolo[4,5-c]pyridin-2-yl)morpholine] belongs less than 10 µM.
For `Fc1ccc2[nH]c3c(c2c1)CN(c1cc2sc(N4CCOCC4)nc2cn1)CC3` [Example 90], the EC50 is less than 10 µM.
To `Fc1ccc2c3c([nH]c2c1)CCN(c1ccc2ccc(N4CCOCC4)nc2c1)C3` [Example 91] belongs 10 to 25 µM; to `Fc1ccc2c3c([nH]c2c1)CCN(c1ccc2nc(N4CCOCC4)ccc2c1)C3` [Example 92], less than 10 µM.
To `COc1ccc2nc(N3CCc4c(c5cc(F)ccc5n4C)C3)ccc2c1` [Example 93] belongs less than 10 µM; to `COc1cncc(N2CCc3c(c4cc(F)ccc4n3C)C2)c1` [Example 94], less than 10 µM; to `COc1cc(N2CCc3c(c4cc(F)ccc4n3C)C2)ccn1` [Example 95], less than 10 µM.
In turn, `Cn1c2c(c3cc(F)ccc31)CN(c1ccc(N3CCOCC3)cc1)CC2` [Example 96] showed an EC50 of less than 10 µM.
To `COc1ccc2c(c1)c1c(n2C)CCN(c2ccc3oc(N(C)C)nc3c2)C1` [Example 96a] belongs 10 to 25 µM.
To `c1cnc2oc3c(c2c1)CN(c1ccc2oc(N4CCOCC4)nc2c1)CC3` [Example 96b] belongs less than 10 µM; to `Cn1c2c(c3cc(F)ccc31)CN(c1cncc(C(F)(F)F)c1)CC2` [Example 96d], less than 10 µM.
To `Cn1c2c(c3cc(F)ccc31)CN(c1ccc(F)cn1)CC2` [Example 96e] belongs 25 to 50 µM; to `Fc1ccc2[nH]c3c(c2c1)CN(c1ccc(N2CCOCC2)nn1)CC3` [Example 97], less than 10 µM; to `CNc1nc2ccc(N3CCc4[nH]c5ccc(F)cc5c4C3)cc2o1` [Example 98], less than 10 µM.
In the case of `Fc1ccc2[nH]c3c(c2c1)CN(c1ccnc(N2CCOCC2)n1)CC3` [Example 99], the concentration giving a half-maximal response (EC50) is 25 to 50 µM.
`Fc1ccc2[nH]c3c(c2c1)CN(c1cnc(N2CCOCC2)cn1)CC3` [Example 100] showed an EC50 of 25 to 50 µM.
As for `Fc1ccc2c3c([nH]c2c1)CCN(c1ccc(N2CCOCC2)nn1)C3` [Example 101], the EC50 was less than 10 µM.
To `Fc1ccc2c3c([nH]c2c1)CCN(c1ccc(N2CC4CCC(C2)O4)nn1)C3` [Example 102] belongs 25 to 50 µM; to `Fc1ccc2c3c([nH]c2c1)CCN(c1cnc(N2CCOCC2)cn1)C3` [Example 103], less than 10 µM.
To `Fc1ccc2[nH]c3c(c2c1)CN(c1ncc2nc(N4CCOCC4)sc2n1)CC3` [Example 104] belongs less than 10 µM; to `Fc1ccc2[nH]c3c(c2c1)CN(c1cnc(N2C4CCC2COC4)cn1)CC3` [Example 105], less than 10 µM; to `Fc1ccc2[nH]c3c(c2c1)CN(c1ccc2nc(N4CCOCC4)ccc2n1)CC3` [Example 105a], less than 10 µM.
To `Fc1ccc2c3c([nH]c2c1)CCN(c1ccc2nc(N4CCOCC4)ccc2n1)C3` [Example 105b] belongs less than 10 µM.
Compound `Fc1ccc2c3c([nH]c2c1)CCN(c1ncc2nc(N4CCOCC4)sc2n1)C3` [Example 105f] yielded an EC50 of less than 10 µM.
For `Fc1ccc2c3c([nH]c2c1)CCN(c1nc2cc(N4CCOCC4)ccc2o1)C3` [Example 106] the value was less than 10 µM; for `Fc1ccc2c3c([nH]c2c1)CCN(c1nc2cc(N4CCOCC4)ccc2s1)C3` [Example 107], less than 10 µM; for `Fc1ccc2c3c([nH]c2c1)CCN(c1nc2ccc(N4CCOCC4)cc2s1)C3` [Example 108], less than 10 µM.
With `Fc1ccc2c3c([nH]c2c1)CCN(c1nc2ccc(N4CCOCC4)cc2o1)C3` [Example 109], the EC50 was less than 10 µM.
Take `Fc1ccc2c3c([nH]c2c1)CCN(c1cc2ccc(N4CCOCC4)nc2cn1)C3` [Example 110]: the EC50 was less than 10 µM.
On to `Fc1cccc2c3c([nH]c12)CCN(c1ccc2oc(N4CCOCC4)nc2c1)C3` [Example 111], for which the EC50 was less than 10 µM.
To `Fc1ccc2[nH]c3c(c2c1)CN(c1cnc2nc(N4CCOCC4)ccc2c1)CC3` [Example 112] belongs less than 10 µM.
To `Fc1ccc2[nH]c3c(c2c1)CN(c1ccc2nc(N4CCOCC4)ccc2c1)CC3` [Example 113] belongs less than 10 µM.
Turning to `Fc1ccc2[nH]c3c(c2c1)CN(c1ccc2ccc(N4CCOCC4)nc2c1)CC3` [Example 114], the EC50 lay in the range of 10 to 25 µM.
For `Fc1ccc2[nH]c3c(c2c1)CN(c1ccc(N2CCOCC2)cc1)CC3` [Example 115] the value was less than 10 µM.
As for `COCCN(C)c1nc2cc(N3CCc4[nH]c5cc(F)ccc5c4C3)ccc2o1` [Example 116], the EC50 is less than 10 µM.
Consider `Fc1ccc2c3c([nH]c2c1)CCN(c1ccc(N2CCOCC2)cc1)C3` [Example 117], for which the EC50 is less than 10 µM.
For `COCCNc1nc2cc(N3CCc4[nH]c5cc(F)ccc5c4C3)ccc2o1` [Example 118] the value was 10 to 25 µM; for `Cn1c2c(c3ccccc31)CN(c1ccc(N3CCOCC3)nc1)CC2` [Example 119], less than 10 µM.
To `Cn1c2c(c3cccc(F)c31)CN(c1ccc3oc(N4CCOCC4)nc3c1)CC2` [Example 120] belongs less than 10 µM; to `N#Cc1ccc(N2CCc3[nH]c4cc(F)ccc4c3C2)nc1` [Example 121], less than 10 µM; to `Fc1ccc2c3c([nH]c2c1)CCN(c1ccc2cc(N4CCOCC4)ncc2c1)C3` [Example 122], less than 10 µM.
To `N#Cc1ccc(N2CCc3[nH]c4cc(F)ccc4c3C2)cn1` [Example 123] belongs less than 10 µM; to `Fc1ccc2[nH]c3c(c2c1)CN(c1cccc2oc(N4CCOCC4)nc12)CC3` [Example 124], less than 10 µM; to `Fc1ccc2c3c([nH]c2c1)CCN(c1ccc2oc(N4CCOC5(CCC5)C4)nc2c1)C3` [Example 125], less than 10 µM.
`C[C@@H]1COCCN1c1nc2cc(N3CCc4[nH]c5cc(F)ccc5c4C3)ccc2o1` [Example 126] showed an EC50 of less than 10 µM.
For `COc1cccc2c3c([nH]c12)CCN(c1ccc2oc(N4CCOCC4)nc2c1)C3` [Example 127] the value was less than 10 µM; for `C[C@H]1CN(c2nc3cc(N4CCc5[nH]c6cc(F)ccc6c5C4)ccc3o2)CCO1` [Example 128], less than 10 µM.
To `C[C@H]1COCCN1c1nc2cc(N3CCc4[nH]c5cc(F)ccc5c4C3)ccc2o1` [Example 129] belongs less than 10 µM.

One may read the EC50 as the concentration giving half of the maximal effect. Higher therefore signals a need for much substance.
